We go through 17 compounds from ChEMBL document CHEMBL1201862, “PubChem BioAssay data set” (2004).

Among the targets are Cytochrome P450 3A4 (Homo sapiens, UniProt P08684); Cytochrome P450 2C9 (Homo sapiens, UniProt P11712); Cytochrome P450 2D6 (Homo sapiens, UniProt P10635).
Test [1] has as its target T1, Microphthalmia-associated transcription factor (Homo sapiens, UniProt O75030).
T1 sequence (O75030 whole entry): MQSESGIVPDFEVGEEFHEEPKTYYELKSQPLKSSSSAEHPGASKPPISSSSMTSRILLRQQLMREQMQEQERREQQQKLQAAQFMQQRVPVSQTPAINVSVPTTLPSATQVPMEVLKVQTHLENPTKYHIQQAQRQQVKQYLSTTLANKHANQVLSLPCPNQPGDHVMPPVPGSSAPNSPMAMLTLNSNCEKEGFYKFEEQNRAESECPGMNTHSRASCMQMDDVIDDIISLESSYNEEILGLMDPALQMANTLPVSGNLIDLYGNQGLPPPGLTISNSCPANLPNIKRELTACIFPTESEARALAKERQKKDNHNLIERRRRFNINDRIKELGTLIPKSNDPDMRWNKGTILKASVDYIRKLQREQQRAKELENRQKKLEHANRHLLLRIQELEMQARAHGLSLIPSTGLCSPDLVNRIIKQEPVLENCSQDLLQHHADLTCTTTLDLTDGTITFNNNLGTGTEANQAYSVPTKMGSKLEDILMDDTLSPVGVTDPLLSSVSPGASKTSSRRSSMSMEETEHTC
Put plainly: TRPM1 promoter luciferase signal decrease, dose response, MITF inhibitor project, cell-based, SK-MEL-5, cherry-picked, set 3 (AID 493073).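 Further: SK-MEL-5 melanoma cells with luciferase driven by the MITF target TRPM1 promoter.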 It counts as functional.

A further test addresses T2, Leucine aminopeptidase (Plasmodium falciparum 3D7, UniProt Q8IL11).
T2 sequence (Q8IL11 whole entry): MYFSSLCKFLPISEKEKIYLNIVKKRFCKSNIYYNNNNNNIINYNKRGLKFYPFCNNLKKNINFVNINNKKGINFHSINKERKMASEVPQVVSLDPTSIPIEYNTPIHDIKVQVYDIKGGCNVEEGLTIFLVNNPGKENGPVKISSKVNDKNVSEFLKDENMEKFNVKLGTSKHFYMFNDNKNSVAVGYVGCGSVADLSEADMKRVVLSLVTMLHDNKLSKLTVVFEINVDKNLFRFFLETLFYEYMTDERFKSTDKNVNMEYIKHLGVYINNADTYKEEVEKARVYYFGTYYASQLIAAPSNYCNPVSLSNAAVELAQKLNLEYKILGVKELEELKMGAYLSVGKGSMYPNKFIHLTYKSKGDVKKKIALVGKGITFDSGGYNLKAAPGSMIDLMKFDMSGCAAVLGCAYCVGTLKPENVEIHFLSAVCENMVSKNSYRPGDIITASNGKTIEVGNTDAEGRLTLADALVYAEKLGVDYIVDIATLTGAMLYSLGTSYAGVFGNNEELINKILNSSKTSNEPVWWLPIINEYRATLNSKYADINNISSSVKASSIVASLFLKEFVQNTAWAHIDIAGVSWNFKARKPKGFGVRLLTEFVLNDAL
The test is described as follows: P. falciparum M17LAP inhibitors, primary screen, biochemical, fluorogenic H-Leu-NHMec substrate, 1536-well (AID 1619). Format: functional.

A short description of test [2]: inhibitors of PGC1a acetylation in cells, dose response, cell-based, cherry-picked samples (AID 720514).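 Further: potency may reflect raised or lowered acetylation signal.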 It counts as functional.
The target of test [3] is T3, Small ubiquitin-related modifier 1 (Homo sapiens, UniProt P63165). Put plainly: inhibitors of SUMO1 peptide binding, dose response, biochemical, fluorescence polarization, uHTS hits (AID 624382). It counts as functional. The settings on record: read-out: IC50_Mean.
Test [4] has as its target T3, Small ubiquitin-related modifier 1. Put plainly: inhibitors of SUMO1 partner interactions, dose response, biochemical, FRET (AID 624383). It counts as functional. The settings on record: read-out: IC50_Mean.
The next test has as its target T4, Protein RecA (Mycobacterium tuberculosis, UniProt P9WHJ3).
T4 sequence (P9WHJ3 whole entry): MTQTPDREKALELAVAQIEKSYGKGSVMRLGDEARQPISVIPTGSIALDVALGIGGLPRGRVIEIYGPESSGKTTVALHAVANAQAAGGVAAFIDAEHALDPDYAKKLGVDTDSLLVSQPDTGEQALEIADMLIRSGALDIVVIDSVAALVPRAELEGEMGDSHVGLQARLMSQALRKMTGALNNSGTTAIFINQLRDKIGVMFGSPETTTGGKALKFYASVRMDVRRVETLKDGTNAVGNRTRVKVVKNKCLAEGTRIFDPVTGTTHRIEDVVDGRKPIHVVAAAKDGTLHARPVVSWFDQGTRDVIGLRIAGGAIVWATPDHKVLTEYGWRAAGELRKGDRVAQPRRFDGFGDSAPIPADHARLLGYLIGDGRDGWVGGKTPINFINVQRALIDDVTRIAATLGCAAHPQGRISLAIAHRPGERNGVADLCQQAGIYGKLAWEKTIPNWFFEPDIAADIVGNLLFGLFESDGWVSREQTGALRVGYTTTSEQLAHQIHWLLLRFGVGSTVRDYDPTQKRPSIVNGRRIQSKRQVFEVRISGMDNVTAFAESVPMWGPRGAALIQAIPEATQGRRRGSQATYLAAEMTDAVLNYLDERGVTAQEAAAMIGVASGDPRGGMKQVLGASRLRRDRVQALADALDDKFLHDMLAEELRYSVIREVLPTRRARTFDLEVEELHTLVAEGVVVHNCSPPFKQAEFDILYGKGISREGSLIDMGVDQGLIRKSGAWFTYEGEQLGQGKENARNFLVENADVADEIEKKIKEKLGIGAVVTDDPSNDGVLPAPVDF
The test is described as follows: Fluorescence Cell-Free Homogeneous Dose Retest to Identify Inhibitors of RecA-Intein Splicing Activity. [Related pubchem assays (depositor defined):AID2097, AID2223, AID489010, AID492950]. Format: functional.

Test [5] deals with T5, Zinc finger protein mex-5 (Caenorhabditis elegans, UniProt Q9XUB2).
T5 sequence (Q9XUB2 whole entry): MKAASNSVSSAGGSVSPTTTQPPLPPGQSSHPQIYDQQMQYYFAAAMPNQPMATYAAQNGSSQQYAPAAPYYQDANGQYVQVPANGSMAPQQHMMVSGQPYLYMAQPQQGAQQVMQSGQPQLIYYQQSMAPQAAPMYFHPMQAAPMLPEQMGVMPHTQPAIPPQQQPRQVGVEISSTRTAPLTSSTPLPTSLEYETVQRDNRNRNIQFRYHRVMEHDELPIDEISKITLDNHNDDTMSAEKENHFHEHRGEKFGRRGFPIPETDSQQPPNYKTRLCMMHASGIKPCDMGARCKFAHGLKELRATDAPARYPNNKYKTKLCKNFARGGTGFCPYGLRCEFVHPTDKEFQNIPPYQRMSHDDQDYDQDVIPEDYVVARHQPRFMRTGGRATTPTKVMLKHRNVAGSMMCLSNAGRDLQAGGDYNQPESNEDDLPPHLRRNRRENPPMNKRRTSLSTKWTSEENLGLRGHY
The test is described as follows: MEX-5/TCR-2 RNA interaction inhibitors, dose response, biochemical, C. elegans, fluorescence polarization (AID 1960).

The target in test [6] is T6, RNA-binding protein pos-1 (Caenorhabditis elegans, UniProt G5EF15).
T6 sequence (G5EF15 whole entry): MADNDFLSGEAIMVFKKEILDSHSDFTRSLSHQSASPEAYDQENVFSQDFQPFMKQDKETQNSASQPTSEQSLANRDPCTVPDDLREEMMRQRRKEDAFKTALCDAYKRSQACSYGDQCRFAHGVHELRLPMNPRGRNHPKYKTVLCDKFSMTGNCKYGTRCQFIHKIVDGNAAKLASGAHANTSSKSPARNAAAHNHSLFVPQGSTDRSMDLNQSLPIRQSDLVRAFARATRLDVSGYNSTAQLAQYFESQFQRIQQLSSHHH
Put plainly: inhibitors of POS-1/mex-3 RNA binding, dose response, biochemical, fluorescence polarization (AID 1964).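 Further: purified POS-1 fused to maltose binding protein made in E. coli; potency of compounds blocking POS-1 binding to fluorescent RNA.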

The next test has as its target Large T antigen (Simian virus 40, UniProt P03070). It counts as functional, Betapolyomavirus macacae.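 Further: Confirmatory-stage PubChem screen for compounds that inhibit SV40 T antigen.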
Test [7] deals with T7, Replicative DNA helicase DnaB (Mycobacterium tuberculosis, UniProt P9WMR3).
T7 sequence (P9WMR3 whole entry): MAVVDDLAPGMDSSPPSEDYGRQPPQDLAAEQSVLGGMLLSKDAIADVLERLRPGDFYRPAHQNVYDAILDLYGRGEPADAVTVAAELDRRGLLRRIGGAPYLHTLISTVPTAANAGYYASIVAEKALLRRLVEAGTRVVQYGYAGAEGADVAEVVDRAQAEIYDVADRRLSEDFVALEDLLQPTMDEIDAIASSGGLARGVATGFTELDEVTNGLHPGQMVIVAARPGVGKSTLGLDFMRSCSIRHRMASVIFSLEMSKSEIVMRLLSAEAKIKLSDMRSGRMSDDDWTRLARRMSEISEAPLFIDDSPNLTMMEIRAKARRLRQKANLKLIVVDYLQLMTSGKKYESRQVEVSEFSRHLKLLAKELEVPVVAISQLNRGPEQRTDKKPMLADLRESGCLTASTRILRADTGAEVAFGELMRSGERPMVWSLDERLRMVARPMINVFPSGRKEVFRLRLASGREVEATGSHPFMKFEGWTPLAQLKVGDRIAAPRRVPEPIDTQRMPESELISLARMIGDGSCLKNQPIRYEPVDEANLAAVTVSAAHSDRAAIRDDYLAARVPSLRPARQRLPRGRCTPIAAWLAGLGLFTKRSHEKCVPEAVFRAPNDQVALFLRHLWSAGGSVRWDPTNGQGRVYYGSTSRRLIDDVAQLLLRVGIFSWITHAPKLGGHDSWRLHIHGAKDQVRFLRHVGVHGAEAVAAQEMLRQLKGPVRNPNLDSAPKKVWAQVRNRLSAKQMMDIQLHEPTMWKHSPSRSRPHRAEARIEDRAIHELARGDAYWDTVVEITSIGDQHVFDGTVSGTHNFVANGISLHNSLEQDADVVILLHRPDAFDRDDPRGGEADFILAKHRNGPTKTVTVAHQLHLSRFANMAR
Put plainly: DnaB intein splicing inhibitors, dose response, biochemical, cell-free fluorescence (AID 449749). It counts as functional.

The nature of test [8]: MC4R antagonists, dose response, counter-screen for LGR2 antagonist project, cell-based, plate reader, cherry pick (AID 743444).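 Further: transfected HEK 293 cells stimulated with alpha-MSH peptide; potency of inhibitors of the alpha-MSH evoked signal.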 It counts as functional.
Test [9] is described as follows: LGR2 antagonists, dose response, cell-based, HEK293, CRE-luciferase reporter, cherry pick, set 2 (AID 743343).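 Further: transfected cells were stimulated with diluted bursicon conditioned medium after compound addition.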 It counts as functional.
Another test has as its target Cytochrome P450 2C19 (Homo sapiens, UniProt P33261). The test is described as follows: Cytochrome panel assay with activity outcomes. Panel member name: p450-cyp2c19 Compounds with AC50 equal or less than 10 uM are considered active. Format: functional. The settings on record: read-out: AC50.

The source made the active and inactive calls.

T3 sequence (P63165 whole entry): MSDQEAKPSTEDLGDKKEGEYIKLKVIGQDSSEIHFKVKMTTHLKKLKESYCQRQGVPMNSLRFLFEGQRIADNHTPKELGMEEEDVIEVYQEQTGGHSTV
Sequence of Cytochrome P450 2C9 (P11712 whole entry): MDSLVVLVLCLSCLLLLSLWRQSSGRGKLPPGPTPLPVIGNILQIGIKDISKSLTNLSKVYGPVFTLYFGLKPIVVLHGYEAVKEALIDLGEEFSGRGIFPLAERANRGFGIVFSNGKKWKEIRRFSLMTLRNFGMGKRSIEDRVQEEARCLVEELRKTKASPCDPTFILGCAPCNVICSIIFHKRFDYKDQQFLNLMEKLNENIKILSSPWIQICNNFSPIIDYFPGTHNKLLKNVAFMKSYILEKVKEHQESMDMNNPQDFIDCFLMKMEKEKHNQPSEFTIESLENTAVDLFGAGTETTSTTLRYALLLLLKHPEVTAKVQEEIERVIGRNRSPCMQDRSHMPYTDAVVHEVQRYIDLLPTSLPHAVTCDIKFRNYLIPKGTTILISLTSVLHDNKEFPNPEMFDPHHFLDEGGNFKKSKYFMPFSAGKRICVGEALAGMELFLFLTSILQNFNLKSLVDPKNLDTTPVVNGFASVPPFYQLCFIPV
Sequence of Cytochrome P450 2D6 (P10635 whole entry): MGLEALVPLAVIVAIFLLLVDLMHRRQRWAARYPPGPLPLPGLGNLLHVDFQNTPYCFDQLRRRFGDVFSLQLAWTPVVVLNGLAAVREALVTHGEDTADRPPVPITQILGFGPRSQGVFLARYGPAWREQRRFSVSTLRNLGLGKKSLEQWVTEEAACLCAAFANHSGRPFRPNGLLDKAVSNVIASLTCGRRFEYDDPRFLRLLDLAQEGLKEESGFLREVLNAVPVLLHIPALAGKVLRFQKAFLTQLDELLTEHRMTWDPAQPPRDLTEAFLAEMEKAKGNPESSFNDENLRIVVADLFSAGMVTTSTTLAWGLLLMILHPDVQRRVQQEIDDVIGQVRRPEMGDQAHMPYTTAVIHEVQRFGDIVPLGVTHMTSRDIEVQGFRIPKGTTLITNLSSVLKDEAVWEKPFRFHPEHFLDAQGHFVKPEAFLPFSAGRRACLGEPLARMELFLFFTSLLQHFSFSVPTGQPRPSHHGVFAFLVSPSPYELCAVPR
Sequence of Cytochrome P450 2C19 (P33261 whole entry): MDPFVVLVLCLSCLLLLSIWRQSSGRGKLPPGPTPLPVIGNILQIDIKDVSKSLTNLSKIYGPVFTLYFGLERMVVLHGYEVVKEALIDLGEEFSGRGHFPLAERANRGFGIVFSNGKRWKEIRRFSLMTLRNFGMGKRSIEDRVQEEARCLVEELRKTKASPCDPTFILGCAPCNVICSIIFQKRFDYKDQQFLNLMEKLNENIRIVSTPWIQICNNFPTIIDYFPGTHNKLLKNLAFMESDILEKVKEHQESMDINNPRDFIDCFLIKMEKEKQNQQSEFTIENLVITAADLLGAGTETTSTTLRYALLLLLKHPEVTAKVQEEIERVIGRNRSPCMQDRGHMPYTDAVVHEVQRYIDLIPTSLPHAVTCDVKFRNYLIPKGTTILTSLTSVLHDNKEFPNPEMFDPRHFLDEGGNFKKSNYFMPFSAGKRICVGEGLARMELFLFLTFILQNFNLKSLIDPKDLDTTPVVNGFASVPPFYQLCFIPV
Sequence of Large T antigen (P03070 whole entry): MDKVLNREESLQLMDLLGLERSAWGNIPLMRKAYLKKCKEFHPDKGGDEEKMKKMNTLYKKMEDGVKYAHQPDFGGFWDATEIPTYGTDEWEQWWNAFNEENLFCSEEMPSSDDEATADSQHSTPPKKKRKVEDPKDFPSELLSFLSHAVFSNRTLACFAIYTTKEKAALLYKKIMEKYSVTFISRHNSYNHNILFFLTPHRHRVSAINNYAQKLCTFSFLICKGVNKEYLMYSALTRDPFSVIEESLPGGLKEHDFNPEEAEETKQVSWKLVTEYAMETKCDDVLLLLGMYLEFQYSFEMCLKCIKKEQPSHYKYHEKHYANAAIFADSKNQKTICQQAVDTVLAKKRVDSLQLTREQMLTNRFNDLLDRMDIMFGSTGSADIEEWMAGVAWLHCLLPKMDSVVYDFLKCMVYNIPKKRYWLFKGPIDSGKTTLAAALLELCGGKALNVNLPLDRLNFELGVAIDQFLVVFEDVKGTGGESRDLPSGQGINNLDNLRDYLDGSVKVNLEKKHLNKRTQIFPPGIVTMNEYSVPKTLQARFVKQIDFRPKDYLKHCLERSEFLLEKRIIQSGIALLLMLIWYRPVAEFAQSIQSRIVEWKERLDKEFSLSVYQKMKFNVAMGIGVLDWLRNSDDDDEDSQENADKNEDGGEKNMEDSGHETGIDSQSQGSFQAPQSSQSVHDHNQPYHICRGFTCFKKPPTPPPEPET
Sequence of Cytochrome P450 3A4 (P08684 whole entry): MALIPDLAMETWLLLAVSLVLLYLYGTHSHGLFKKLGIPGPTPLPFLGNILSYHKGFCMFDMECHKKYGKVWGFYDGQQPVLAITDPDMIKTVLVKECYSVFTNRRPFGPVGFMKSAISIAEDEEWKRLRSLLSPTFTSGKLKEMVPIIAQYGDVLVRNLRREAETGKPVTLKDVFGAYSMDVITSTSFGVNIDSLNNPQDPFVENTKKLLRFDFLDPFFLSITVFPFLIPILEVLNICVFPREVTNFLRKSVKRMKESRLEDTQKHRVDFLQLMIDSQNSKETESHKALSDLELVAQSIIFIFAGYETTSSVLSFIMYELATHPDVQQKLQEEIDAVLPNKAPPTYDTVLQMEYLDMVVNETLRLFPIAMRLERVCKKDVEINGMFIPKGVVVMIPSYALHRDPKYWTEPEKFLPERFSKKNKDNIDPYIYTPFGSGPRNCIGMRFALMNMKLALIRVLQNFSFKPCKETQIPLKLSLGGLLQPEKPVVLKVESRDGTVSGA

`COc1cc(SC)ccc1C(=O)Nc1ccc(Br)cn1`: in test [1], the concentration at half-maximal activity (AC50) was 7.36 µM (active).

As to `O=C(NCc1ccccc1)C(=O)Nc1cccc(C(=O)O)c1`, the AC50 in test [1] is 4.85 µM (active).

With `O=C(O)C1CCCCC1C(=O)Nc1cccc(Cl)c1Cl` (stereo not given), the IC50 at Leucine aminopeptidase was 13.5 µM (active).

`COc1cccc2c(=O)n(CC(=O)N3CCCCCC3)ccc12`: the IC50 on Leucine aminopeptidase is 17.6 µM (active).

For the compound `O=C(Nc1c(C(=O)O)oc2ccc(Br)cc12)c1ccccc1`, the IC50 at Leucine aminopeptidase is 5.42 µM (active).

Take `O=C(O)C1CCCCC1C(=O)Nc1ccc2c(c1)OCCO2` (stereo not given): on Leucine aminopeptidase, the IC50 is 32.9 µM (active).

`CCn1c(C)c(C)c2cc(C(=O)NCCN3CCOCC3)ccc21`: the AC50 in [2] is 25.5 µM (active).

Turning to `CC(CC(=O)OCC(=O)Nc1ccc2[nH]c(O)nc2c1)c1ccccc1` (stereo not given), the IC50 is > 66.6 µM (inactive) in [3] and 21 µM (inactive) in test [4].

On to `COc1cc(C2C(C#N)=C(N)Oc3[nH]nc(-c4cccnc4)c32)cc(Br)c1O` (stereo not given), for which the EC50 is 2.06 µM (active) on Protein RecA, > 300 µM (not active) in [5] and > 300 µM (not active) in test [6]. On Large T antigen, the IC50 was 57 µM (active). In addition, the concentration at half-maximal activity (AC50) in [7] was 5.65 µM (active).

In the case of `CCC(CO)Oc1cc(NC(=O)c2ccccc2F)c2ncn(C(C)C)c2c1` (stereo not given), the IC50 in test [3] is > 66.6 µM (inactive); in [4] it was 12.2 µM (active).

As for `CC(=O)Nc1ccc(S(=O)(=O)N2CCn3cccc3C2C)cc1` (stereo not given), the AC50 in test [1] is 28.6 µM (active).

With `CCC(=O)Nc1cc2nn(-c3ccc(C)cc3)nc2cc1C`, in [1], the AC50 was 4.15 µM (active).

As to `Cc1cc(C(=O)Nc2ccc(N3CCCCC3)cc2)no1`, the concentration at half-maximal activity (AC50) in test [8] is 13.1 µM (active); in [9], 13.3 µM (active).

In the case of `COc1ccccc1NC(=O)CC1COc2ccccc2O1` (stereo not given), the concentration at half-maximal activity (AC50) at Cytochrome P450 3A4 was 14.1 µM (inconclusive); at Cytochrome P450 2C9, 5.62 µM (inconclusive); at Cytochrome P450 2D6, 12.6 µM (inconclusive). In addition, the IC50 at Leucine aminopeptidase was 5.29 µM (active).

As for `COc1cc(CN2C[C@@H]3N[C@H](C2)[C@H]3c2ccc(-c3cccc(OC)c3)cc2)cc(OC)c1`, in [2], the half-maximal activity concentration (AC50) is 24.5 µM (active).

With `C[C@@H]1CN([C@@H](C)CO)S(=O)(=O)c2ccc(C#CC3CCCCC3)cc2O[C@H]1CN(C)Cc1cccnc1`, the AC50 in [2] is 15.1 µM (active).

For `O=C(N/N=C/c1ccncc1)c1cc2c(ccc3ccccc32)o1`, the IC50 in test [3] is > 66.6 µM (inactive); in test [4], 100 µM (inactive). In addition, the figures for the AC50 on Cytochrome P450 2C9 and at Cytochrome P450 2C19 were 0.794 µM (inconclusive) and 8.91 µM (inconclusive), respectively.
